Literature values as cited in patent publication US20060275513A1, “Diet supplement for burning additional calories, providing sustained energy, supporting weight loss, and/or improving mental focus” (priority 2005, published 2006).

Conditions: non-extended release format

For Cn1c(=O)c2c(ncn2C)n(C)c1=O [Caffeine], the accepted half-life is listed as 3.5 to 5 h.
